In patent US20250171438A1 (Agios Pharmaceuticals, Inc., priority 2022, published 2025):

Target: T1, human PAH with the R408W mutation (Homo sapiens, UniProt P00439, R408W)
T1 construct: expressed in transfected cells
T1 sequence (P00439 1-452 R408W): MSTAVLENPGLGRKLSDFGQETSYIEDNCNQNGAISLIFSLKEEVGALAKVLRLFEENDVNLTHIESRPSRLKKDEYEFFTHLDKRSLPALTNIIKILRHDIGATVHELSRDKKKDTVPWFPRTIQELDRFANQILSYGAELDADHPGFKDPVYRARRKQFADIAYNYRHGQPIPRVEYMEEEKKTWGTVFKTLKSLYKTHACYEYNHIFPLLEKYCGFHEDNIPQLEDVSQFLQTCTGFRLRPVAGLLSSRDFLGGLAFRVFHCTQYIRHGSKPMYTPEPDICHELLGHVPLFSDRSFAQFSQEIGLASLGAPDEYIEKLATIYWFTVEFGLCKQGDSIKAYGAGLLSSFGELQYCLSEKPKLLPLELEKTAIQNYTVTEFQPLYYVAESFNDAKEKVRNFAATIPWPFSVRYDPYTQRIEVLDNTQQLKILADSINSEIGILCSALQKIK
Assay: Cell Based Phenylalanine Flux Assay
Set-up: scale not given here
Details: A375 cells expressing human R408W PAH; 24 hrs compound incubation; 13C-Tyrosine by LC-MS; average where tested multiple times; read-out: AC50

Question: With `Cc1nn(C)cc1-c1ncc(C(=O)N2CCc3[nH]cnc3[C@@H]2c2nc3ccccc3s2)o1` [Example 1382, (R)-(4-(benzo[d]thiazol-2-yl)-6,7-dihydro-1H-imidazo[4,5-c]pyridin-5(4H)-yl)(2-(1,3-dimethyl-1H-pyrazol-4-yl)oxazol-5-yl)methanone] as the molecule, how does the AC50 read?
Answer: 1000 to 5000 nM

Question: `O=C(c1nnc(OCCC(F)(F)F)o1)N1CCc2[nH]cnc2[C@H]1c1nc2ccccc2s1` [Example 1790] was tested. Which AC50 did it give?
Answer: 500 to 1000 nM

Question: With `O=C(c1cnn2cc(Cl)ccc12)N1CCc2[nH]cnc2[C@H]1c1nc2ccccc2s1` [Example 1063] as the molecule, how does the AC50 read?
Answer: < 500 nM

Question: For `O=C(c1cnc(-c2c(F)cccc2F)s1)N1CCc2[nH]cnc2[C@H]1c1nc2c(F)cccc2s1` [Example 1504], which AC50 is on record?
Answer: < 500 nM

Question: `CN(C)CCn1cc(C(=O)N2CCc3[nH]cnc3[C@@H]2c2nc3c(F)cccc3s2)c(C(F)(F)F)n1` [Example 1642, (R)-(1-(2-(dimethylamino)ethyl)-3-(trifluoromethyl)-1H-pyrazol-4-yl)(4-(4-fluorobenzo[d]thiazol-2-yl)-6,7-dihydro-1H-imidazo[4,5-c]pyridin-5(4H)-yl)methanone] was tested. Which AC50 did it give?
Answer: 500 to 1000 nM

Question: `O=C(c1cnn2ccccc12)N1CCc2nc[nH]c2[C@@H]1c1nc2c(F)cccc2s1` [Example 1112, (R)-(4-(4-fluorobenzo[d]thiazol-2-yl)-6,7-dihydro-3H-imidazo[4,5-c]pyridin-5(4H)-yl)(pyrazolo[1,5-a]pyridin-3-yl)methanone] was tested. Which AC50 did it give?
Answer: 1000 to 5000 nM

Question: How did the AC50 turn out when `Cc1cnc(C(=O)N2CCc3[nH]cnc3[C@H]2c2nc3ccccc3s2)s1` [Example 1055] was run?
Answer: 500 to 1000 nM

Question: `C[C@H]1CN(C(=O)c2nnc(-c3cnn(C)c3)o2)[C@H](c2nc3ccccc3s2)c2nc[nH]c21` [Example 1752, ((4S,7S)-4-(benzo[d]thiazol-2-yl)-7-methyl-6,7-dihydro-1H-imidazo[4,5-c]pyridin-5(4H)-yl)(5-(1-methyl-1H-pyrazol-4-yl)-1,3,4-oxadiazol-2-yl)methanone] was tested. Which AC50 did it give?
Answer: 500 to 1000 nM

Question: How did the AC50 turn out when `Cn1nccc1-c1nnc(C(=O)N2CCc3[nH]cnc3[C@H]2c2nc3ccccc3s2)o1` [Example 1945] was run?
Answer: < 500 nM

Question: How did the AC50 turn out when `CN1CCN(c2nc(C(F)F)c(C(=O)N3CCc4[nH]cnc4[C@H]3c3nc4c(F)cccc4s3)o2)CC1` [Example 2023, (S)-(4-(difluoromethyl)-2-(4-methylpiperazin-1-yl)oxazol-5-yl)(4-(4-fluorobenzo[d]thiazol-2-yl)-6,7-dihydro-1H-imidazo[4,5-c]pyridin-5(4H)-yl)methanone] was run?
Answer: < 500 nM

Question: For `O=C(c1ocnc1C(F)(F)F)N1CCc2[nH]cnc2[C@H]1c1nc2c(F)cccc2s1` [Example 1493, (S)-(4-(4-fluorobenzo[d]thiazol-2-yl)-6,7-dihydro-1H-imidazo[4,5-c]pyridin-5(4H)-yl)(4-(trifluoromethyl)oxazol-5-yl)methanone], which AC50 is on record?
Answer: < 500 nM

Question: With `CC(F)(F)c1ncoc1C(=O)N1CCc2[nH]cnc2[C@H]1c1nc2c(F)cccc2s1` [Example 2007] as the molecule, how does the AC50 read?
Answer: < 500 nM

Question: With `CN(C)Cc1ccc2c(C(=O)N3CCc4[nH]cnc4[C@@H]3c3nc4c(F)cccc4s3)cnn2c1` [Example 1620, (R)-(6-((dimethylamino)methyl)pyrazolo[1,5-a]pyridin-3-yl)(4-(4-fluorobenzo[d]thiazol-2-yl)-6,7-dihydro-1H-imidazo[4,5-c]pyridin-5(4H)-yl)methanone] as the molecule, how does the AC50 read?
Answer: > 5000 nM

Question: How did the AC50 turn out when `O=C(c1ncn2ccccc12)N1CCc2[nH]cnc2[C@@H]1c1nc2c(F)cccc2s1` [Example 1144, (R)-(4-(4-fluorobenzo[d]thiazol-2-yl)-6,7-dihydro-1H-imidazo[4,5-c]pyridin-5(4H)-yl)(imidazo[1,5-a]pyridin-1-yl)methanone] was run?
Answer: > 5000 nM

Question: Which AC50 does the source give for `O=C(c1ccno1)N1CCc2[nH]cnc2[C@@H]1c1nc2ccccc2s1` [Example 1124, (R)-(4-(benzo[d]thiazol-2-yl)-6,7-dihydro-1H-imidazo[4,5-c]pyridin-5(4H)-yl)(isoxazol-5-yl)methanone] here?
Answer: > 5000 nM

Question: For `O=C(c1cnco1)N1CCc2[nH]cnc2[C@@H]1c1nc2c(F)cccc2s1` [Example 2162], which AC50 is on record?
Answer: 1000 to 5000 nM

Question: With `CC(C)(O)c1ncc(C(=O)N2CCc3[nH]cnc3[C@@H]2c2nc3ccccc3s2)s1` [Example 1436, (R)-(4-(benzo[d]thiazol-2-yl)-6,7-dihydro-1H-imidazo[4,5-c]pyridin-5(4H)-yl)(2-(2-hydroxypropan-2-yl)thiazol-5-yl)methanone] as the molecule, how does the AC50 read?
Answer: 1000 to 5000 nM

Question: How did the AC50 turn out when `O=C(c1scnc1Cl)N1CCc2[nH]cnc2[C@@H]1c1nc2c(F)cccc2s1` [Example 1639, (R)-(4-chlorothiazol-5-yl)(4-(4-fluorobenzo[d]thiazol-2-yl)-6,7-dihydro-1H-imidazo[4,5-c]pyridin-5(4H)-yl)methanone] was run?
Answer: 1000 to 5000 nM

Question: For `O=C(Cc1nccs1)N1CCc2[nH]cnc2[C@H]1c1nc2ccccc2s1` [Example 1037], which AC50 is on record?
Answer: 500 to 1000 nM

Question: With `Cc1ncoc1C(=O)N1CCc2[nH]cnc2[C@@H]1c1nc2ccccc2s1` [Example 1162, (R)-(4-(benzo[d]thiazol-2-yl)-6,7-dihydro-1H-imidazo[4,5-c]pyridin-5(4H)-yl)(4-methyloxazol-5-yl)methanone] as the molecule, how does the AC50 read?
Answer: 1000 to 5000 nM

Question: With `Cc1nc(Br)c(C(=O)N2CCc3[nH]cnc3[C@H]2c2nc3c(F)cccc3s2)o1` [Example 1760] as the molecule, how does the AC50 read?
Answer: < 500 nM

Question: For `C[C@@H]1CN(C(=O)c2nnc(-c3cnn(C)c3)o2)[C@H](c2nc3ccccc3s2)c2nc[nH]c21` [Example 1750, ((4S,7R)-4-(benzo[d]thiazol-2-yl)-7-methyl-6,7-dihydro-1H-imidazo[4,5-c]pyridin-5(4H)-yl)(5-(1-methyl-1H-pyrazol-4-yl)-1,3,4-oxadiazol-2-yl)methanone], which AC50 is on record?
Answer: 500 to 1000 nM

Question: For `O=C(c1ocnc1C1CC1)N1CC2(CC2)c2[nH]cnc2[C@H]1c1nc2ccccc2s1` [Example 1669, (S)-(4′-(benzo[d]thiazol-2-yl)spiro[cyclopropane-1,7′-imidazo[4,5-c]pyridin]-5′(1′H,4′H,6′H)-yl)(4-cyclopropyloxazol-5-yl)methanone], which AC50 is on record?
Answer: < 500 nM

Question: With `O=C(c1nc(Cl)cs1)N1CCc2[nH]cnc2[C@H]1c1nc2ccc(Cl)cc2[nH]1` [Example 955, (S)-(4-(6-chloro-1H-benzo[d]imidazol-2-yl)-6,7-dihydro-1H-imidazo[4,5-c]pyridin-5(4H)-yl)(4-chlorothiazol-2-yl)methanone] as the molecule, how does the AC50 read?
Answer: 500 to 1000 nM

Question: For `O=C(c1cnn(C2CC2)c1C(F)F)N1CCc2[nH]cnc2[C@H]1c1nc2c(F)cccc2s1` [Example 1999, (S)-(1-cyclopropyl-5-(difluoromethyl)-1H-pyrazol-4-yl)(4-(4-fluorobenzo[d]thiazol-2-yl)-6,7-dihydro-1H-imidazo[4,5-c]pyridin-5(4H)-yl)methanone], which AC50 is on record?
Answer: 500 to 1000 nM

Same assay, conditions: A375 cells expressing human R408W PAH; 24 hrs with compound; 13C-Tyrosine by LC-MS; average where tested multiple times

Question: `O=C(c1c(C(F)(F)F)nn2c1CCCC2)N1CCc2[nH]cnc2C1c1nc2ccccc2s1` (stereo not shown) was tested. Which AC50 did it give?
Answer: E, E

Same assay, conditions: A375 cells expressing human R408W PAH; 24 hrs with compound; 13C-Tyrosine by LC-MS; average where tested multiple times; read-out: AC50

Question: For `O=C(c1ccn[nH]1)N1CCc2[nH]cnc2C1c1nc2c(F)cccc2s1` (stereo not shown), which AC50 is on record?
Answer: 1000 to 5000 nM

Question: Which AC50 does the source give for `O=C(c1ncc(Cl)s1)N1CCc2[nH]cnc2C1c1nc2ccc(F)cc2s1` (stereo not shown) here?
Answer: > 5000 nM

Question: With `O=C(CCc1nc2ccccc2s1)N1CCc2[nH]cnc2[C@H]1c1nc2ccccc2[nH]1` [(S)-1-(4-(1H-benzo[d]imidazol-2-yl)-1,4,6,7-tetrahydro-5H-imidazo[4,5-c]pyridin-5-yl)-3-(benzo[d]thiazol-2-yl)propan-1-one] as the molecule, how does the AC50 read?
Answer: 1000 to 5000 nM

Question: `Cc1nnc(C(=O)N2CCc3[nH]cnc3C2c2nc3c(F)cccc3s2)n1C` (stereo not shown) was tested. Which AC50 did it give?
Answer: 1000 to 5000 nM

Question: How did the AC50 turn out when `CNC(C)(C)c1nc(C)c(C(=O)N2CCc3[nH]cnc3C2c2nc3c(F)cccc3s2)o1` (stereo not shown) was run?
Answer: 1000 to 5000 nM

Question: With `CC(C)(O)c1nsc(C(=O)N2CCc3[nH]cnc3C2c2nc3c(F)cccc3s2)n1` (stereo not shown) as the molecule, how does the AC50 read?
Answer: 1000 to 5000 nM

Question: Which AC50 does the source give for `COC(=O)N1CC(C(=O)N2CCc3[nH]cnc3[C@@H]2c2nc3c(F)cccc3s2)C1` (single isomer, unassigned) here?
Answer: > 5000 nM

Question: `CCc1nnc(CCC(=O)N2CCc3[nH]cnc3[C@H]2c2nc3ccccc3[nH]2)s1` [(S)-1-(4-(1H-benzo[d]imidazol-2-yl)-1,4,6,7-tetrahydro-5H-imidazo[4,5-c]pyridin-5-yl)-3-(5-ethyl-1,3,4-thiadiazol-2-yl)propan-1-one] was tested. Which AC50 did it give?
Answer: 1000 to 5000 nM

Question: How did the AC50 turn out when `Cn1nc(C(C)(C)O)cc1C(=O)N1CCc2[nH]cnc2C1c1nc2c(F)cccc2s1` (stereo not shown) was run?
Answer: 1000 to 5000 nM

Question: With `Cn1nc(-c2ccccn2)cc1C(=O)N1CCc2[nH]cnc2C1c1nc2c(F)cccc2s1` (stereo not shown) as the molecule, how does the AC50 read?
Answer: > 5000 nM

Question: With `Cc1nc(-c2ccccn2)oc1C(=O)N1CC(C)c2[nH]cnc2C1c1nc2ccccc2s1` (stereo not shown) as the molecule, how does the AC50 read?
Answer: 1000 to 5000 nM

Question: `Cn1ncc(C(=O)N2CCc3[nH]cnc3[C@@H]2c2nc3c(F)cccc3s2)c1Br` (single isomer, unassigned) was tested. Which AC50 did it give?
Answer: > 5000 nM

Question: How did the AC50 turn out when `Nc1cnc(N2CCc3[nH]cnc3C2c2nc3ccccc3s2)nc1` (stereo not shown) was run?
Answer: 1000 to 5000 nM

Question: Which AC50 does the source give for `O=C(c1cnn2cc(Cl)ccc12)N1CCc2[nH]cnc2C1c1nc2ccccc2[nH]1` (stereo not shown) here?
Answer: 1000 to 5000 nM

Question: `Cc1nc(N2CCN(C)CC2)oc1C(=O)N1CCc2[nH]cnc2C1c1nc2c(F)cccc2s1` (stereo not shown) was tested. Which AC50 did it give?
Answer: > 5000 nM

Question: Which AC50 does the source give for `O=C(c1ccsn1)N1CCc2[nH]cnc2C1c1nc2ccccc2s1` (stereo not shown) here?
Answer: > 5000 nM

Question: With `O=C(c1cncs1)N1CCc2[nH]cnc2C1c1nc2ccc(F)cc2s1` (stereo not shown) as the molecule, how does the AC50 read?
Answer: > 5000 nM

Question: `O=C(Cc1noc2ccccc12)N1CCc2[nH]cnc2C1c1nc2ccccc2[nH]1` (stereo not shown) was tested. Which AC50 did it give?
Answer: 1000 to 5000 nM

Question: For `O=C(C1CC1)N1CCc2[nH]cnc2C1c1nc2cc(F)ccc2s1` (stereo not shown), which AC50 is on record?
Answer: 1000 to 5000 nM

Question: How did the AC50 turn out when `O=C(Cc1nc(C(F)(F)F)cs1)N1CCc2[nH]cnc2C1c1nc2ccc(Cl)cc2[nH]1` (stereo not shown) was run?
Answer: > 5000 nM
